Key:
F143W mutant of Bcl-xL = test: ITC measurement of Bak BH3 peptide binding, F143W mutant; design: species or system human; conditions: ratio of KA by ITC, F143W vs WT Bcl-xL
WT Bcl-xL = test: NMR titration / chemical shift perturbation; format: binding, human

Row | affinity increase, F143W mutant versus WT Bcl-xL (F143W mutant of Bcl-xL) | Substance | CSP in the cryptic site (WT Bcl-xL; NMR, 160 μM peptide added to 100 μM WT Bcl-xL, 10 mM NaPi pH 6.8, 2 mM DTT, 298 K) | binding to WT Bcl-xL (binding mode) (WT Bcl-xL; concluded from NMR CSPs, 160 μM peptide, 100 μM WT Bcl-xL)
1 | twofold | NH3-GQVGRQLAIIGDDINR-COOH [Bak BH3 peptide] |  | 
2 |  | NH3-YPLGSPLWRLHS-COOH [P1] | clear CSP in the cryptic site | binds to the WT Bcl-xL with the expected binding mode
